The nature of data set [1]: Plasma clearance in Sprague-Dawley rat at 10 mg/kg, iv measured for 24 hrs by HPLC-MS/MS analysis. The format is ADME, organism-based.
For data set [2], the system named is HCT-116. Put plainly: Induction of autophagy in human HCT-116 cells assessed as increase in LC3I to LC3II conversion at 1 to 10 uM incubated for 24 hrs by Western blotting analysis. The following applies: dose 1-10 µM. Type of data set: functional, cell-based. In general terms: Immunoblotting shows a protein as a band on a membrane.
Data set [3] has as its system HCT-116. Put plainly: Cytotoxicity against human HCT-116 cells assessed as decrease in cell viability incubated for 48 hrs by SRB assay. The conditions noted are these: HCT-116, 48 h. The format is functional, cell-based.
The nature of data set [4]: Toxicity in athymic nude BALB/c mouse xenografted with human HCT-116 cells assessed as pathological changes in heart at 5 to 15 mg/kg, ip administered every other day and measured after 14 days by hematoxylin and eosin staining-based microscopic analysis. Type of data set: organism-based. The following applies: in vivo, 336 h, dose 5-15 mg/kg, time 14 day. (In general: In xenograft studies the graft and the host belong to different species.)

In data set [5] the test system is HCT-116. As to the kind of experiment: Induction of apoptosis in human HCT-116 cells assessed as necrotic cells at 1 uM incubated for 24 hrs by Annexin V-FITC/PI staining based flow cytometric analysis (reference value: 1.1 %). The format is functional.
Data set [6] deals with Mus musculus. Put plainly: In vivo inhibition of NFkappaB activation in athymic BALB/c mouse xenografted with human HCT-116 cells assessed as reduction in E-selectin gene expression in tumor at 15 mg/kg, ip administered every other day and measured after 14 days by qRT-PCR analysis. The conditions noted are these: time 14.0 day. The format is functional, organism-based.
In data set [7] the target is Nuclear factor NF-kappa-B complex (Homo sapiens) (UniProt Q00653+P19838+Q04206). Put plainly: Inhibition of TNF-alpha induced NFkappaB activation in human HT-29 cells assessed as downregulation of A20 gene expression pretreated for 24 hrs followed by TNFalpha stimulation and measured after 2 hrs by quantitative RT-PCR analysis. Type of data set: cell-based. The following applies: dose 1-10 µM, time 26.0 hrs.

The test system of data set [8] is HT-29. Put plainly: Antitumor activity against human HT-29 cells xenografted in athymic nude BALB/c mouse assessed as induction of autophagy by measuring increase in LC3B expression in tumor at 15 mg/kg, ip administered every other day and measured after 14 days by immunohistochemistry analysis. The following applies: time 14.0 day. Type of data set: functional, organism-based.

The test system of data set [9] is SW-620. As to the kind of experiment: Cytotoxicity against human SW620 cells assessed as decrease in cell viability incubated for 48 hrs by SRB assay. The following applies: SW-620, 48 h. The format is functional, cell-based.

By clearance is commonly meant the rate of elimination divided by the concentration. As usually defined, the IC50 is the concentration that inhibits the measured activity by half.

Activity calls are given as the source filed them. No cut-off for these calls is given here.

Chain of Nuclear factor NF-kappa-B complex (Homo sapiens) (P19838 whole entry, looked up): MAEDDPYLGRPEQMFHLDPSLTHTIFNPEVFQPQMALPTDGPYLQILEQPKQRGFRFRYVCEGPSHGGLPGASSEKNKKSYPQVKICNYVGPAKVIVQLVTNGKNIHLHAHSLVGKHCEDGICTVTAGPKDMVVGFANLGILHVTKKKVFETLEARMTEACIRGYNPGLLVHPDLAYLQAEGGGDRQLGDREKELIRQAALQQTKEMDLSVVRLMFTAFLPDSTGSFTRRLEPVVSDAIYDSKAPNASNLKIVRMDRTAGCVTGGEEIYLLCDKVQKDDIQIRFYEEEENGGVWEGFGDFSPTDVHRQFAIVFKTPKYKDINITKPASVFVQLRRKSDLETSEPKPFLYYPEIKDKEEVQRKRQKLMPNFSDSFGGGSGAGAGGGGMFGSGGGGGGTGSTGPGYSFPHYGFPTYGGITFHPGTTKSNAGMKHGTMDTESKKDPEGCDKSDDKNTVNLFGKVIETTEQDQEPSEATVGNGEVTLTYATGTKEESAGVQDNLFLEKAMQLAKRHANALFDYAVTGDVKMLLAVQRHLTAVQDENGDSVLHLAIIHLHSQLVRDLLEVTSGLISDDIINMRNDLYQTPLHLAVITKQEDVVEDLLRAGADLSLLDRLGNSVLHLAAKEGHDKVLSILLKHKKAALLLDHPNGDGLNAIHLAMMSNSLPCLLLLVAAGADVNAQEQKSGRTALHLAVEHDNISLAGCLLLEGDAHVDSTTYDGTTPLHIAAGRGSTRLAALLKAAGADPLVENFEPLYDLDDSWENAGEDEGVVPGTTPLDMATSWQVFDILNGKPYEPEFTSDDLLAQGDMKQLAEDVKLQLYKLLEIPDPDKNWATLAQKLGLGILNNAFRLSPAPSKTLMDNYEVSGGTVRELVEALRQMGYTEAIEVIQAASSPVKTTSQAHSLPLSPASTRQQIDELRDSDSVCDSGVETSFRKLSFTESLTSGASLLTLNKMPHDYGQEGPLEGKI
Chain of Nuclear factor NF-kappa-B complex (Homo sapiens) (Q00653 whole entry, looked up): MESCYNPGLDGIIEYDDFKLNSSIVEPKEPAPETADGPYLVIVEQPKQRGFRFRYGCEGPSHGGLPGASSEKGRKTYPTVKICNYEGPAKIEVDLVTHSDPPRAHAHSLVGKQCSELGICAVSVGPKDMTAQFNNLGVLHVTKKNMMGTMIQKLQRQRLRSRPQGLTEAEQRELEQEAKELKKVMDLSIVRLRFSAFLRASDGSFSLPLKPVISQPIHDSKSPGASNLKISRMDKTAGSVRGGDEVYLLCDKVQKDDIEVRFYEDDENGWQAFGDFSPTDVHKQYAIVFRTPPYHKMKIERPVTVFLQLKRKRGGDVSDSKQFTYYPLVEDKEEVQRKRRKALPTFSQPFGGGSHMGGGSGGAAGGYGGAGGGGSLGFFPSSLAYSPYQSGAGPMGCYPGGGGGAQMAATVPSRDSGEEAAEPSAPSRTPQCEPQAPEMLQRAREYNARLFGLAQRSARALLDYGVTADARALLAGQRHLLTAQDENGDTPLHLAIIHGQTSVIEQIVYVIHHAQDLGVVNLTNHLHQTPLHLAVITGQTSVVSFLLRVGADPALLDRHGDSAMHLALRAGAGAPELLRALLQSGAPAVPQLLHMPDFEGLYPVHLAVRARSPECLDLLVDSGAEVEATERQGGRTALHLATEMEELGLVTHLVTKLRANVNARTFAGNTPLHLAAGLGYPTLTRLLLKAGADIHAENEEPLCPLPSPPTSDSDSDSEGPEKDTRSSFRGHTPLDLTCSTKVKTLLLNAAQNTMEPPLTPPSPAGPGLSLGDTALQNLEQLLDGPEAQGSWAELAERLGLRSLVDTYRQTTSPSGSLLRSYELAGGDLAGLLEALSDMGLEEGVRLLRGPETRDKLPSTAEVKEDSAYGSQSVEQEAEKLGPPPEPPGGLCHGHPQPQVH
Chain of Nuclear factor NF-kappa-B complex (Homo sapiens) (Q04206 whole entry, looked up): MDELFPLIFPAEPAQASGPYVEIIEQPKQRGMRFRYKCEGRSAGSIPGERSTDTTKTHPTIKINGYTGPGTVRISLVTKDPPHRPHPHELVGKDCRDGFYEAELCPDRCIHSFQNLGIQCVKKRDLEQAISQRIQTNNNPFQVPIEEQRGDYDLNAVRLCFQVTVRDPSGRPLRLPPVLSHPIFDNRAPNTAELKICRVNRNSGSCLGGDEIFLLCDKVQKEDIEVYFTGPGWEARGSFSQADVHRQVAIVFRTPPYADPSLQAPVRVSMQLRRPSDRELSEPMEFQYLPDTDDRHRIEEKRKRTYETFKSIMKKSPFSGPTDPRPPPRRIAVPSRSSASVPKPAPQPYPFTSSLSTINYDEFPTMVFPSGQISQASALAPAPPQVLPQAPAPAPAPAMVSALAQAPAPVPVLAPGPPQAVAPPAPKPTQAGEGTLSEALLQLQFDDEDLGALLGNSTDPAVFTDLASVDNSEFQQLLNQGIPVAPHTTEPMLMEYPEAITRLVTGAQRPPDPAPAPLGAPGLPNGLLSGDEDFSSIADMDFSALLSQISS

On to `C[C@@H]1CC[C@H]2[C@H](C(=O)c3c(O)c([C@@]4(O)CC[C@@H](O)[C@H]5O[C@H]54)cn(O)c3=O)[C@H](C)C=C[C@@H]2C1`, for which the clearance in [1] was 4 mL/min/kg. In addition, the outcome in data set [2] and in data set [8] was Active. The IC50 in data set [3] stood at 930 nM; in data set [9] it was 570 nM. The Activity result in [4] is “Non-Toxic”; in data set [5], 2.41%. In data set [6], the inhibition result was “Active”. For the same compound, the inhibition entry in data set [7] is “Dose-Dependent Effect”.

The record behind these values is ChEMBL document CHEMBL5390201, “The Natural Alkaloid (-)-N-Hydroxyapiosporamide Suppresses Colorectal Tumor Progression as an NF-κB Pathway Inhibitor by Targeting the TAK1-TRAF6 Complex” (J Nat Prod, 2023).
